According to ChEMBL document CHEMBL5291721, “A preclinical secondary pharmacology resource illuminates target-adverse drug reaction associations of marketed drugs” (Nat Commun, 2023):

Legend:
[1] = molecular target: Delta-type opioid receptor (Homo sapiens, UniProt P41143)
Melanocortin receptor 3 = Melanocortin receptor 3 (Homo sapiens, UniProt P41968)
[2] = molecular target: cGMP-inhibited 3',5'-cyclic phosphodiesterase 3A (Homo sapiens, UniProt Q14432); assay type: functional
[3] = molecular target: T1, Prostaglandin G/H synthase 1 (Rattus norvegicus, UniProt Q63921); assay type: functional
T1 sequence (Q63921 whole entry): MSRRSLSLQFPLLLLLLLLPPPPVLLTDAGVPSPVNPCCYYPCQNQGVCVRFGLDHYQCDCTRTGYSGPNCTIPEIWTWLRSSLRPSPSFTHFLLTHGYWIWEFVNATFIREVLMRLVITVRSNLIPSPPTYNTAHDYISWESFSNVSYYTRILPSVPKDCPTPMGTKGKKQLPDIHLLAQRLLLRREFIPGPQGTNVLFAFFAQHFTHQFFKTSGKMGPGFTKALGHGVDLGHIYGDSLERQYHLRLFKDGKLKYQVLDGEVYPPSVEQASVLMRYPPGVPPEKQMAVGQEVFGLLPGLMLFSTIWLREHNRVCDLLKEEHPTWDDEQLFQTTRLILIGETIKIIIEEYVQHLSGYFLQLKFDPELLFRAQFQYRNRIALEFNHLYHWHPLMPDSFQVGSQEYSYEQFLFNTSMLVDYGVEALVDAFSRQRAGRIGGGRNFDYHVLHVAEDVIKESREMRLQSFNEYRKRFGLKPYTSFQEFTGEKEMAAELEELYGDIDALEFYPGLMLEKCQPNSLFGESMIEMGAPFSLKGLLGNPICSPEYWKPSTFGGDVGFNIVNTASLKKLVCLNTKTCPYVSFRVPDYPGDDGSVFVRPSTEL

[4] = molecular target: Glutamate receptor ionotropic, NMDA 1 (Rattus norvegicus, UniProt P35439)
[5] = molecular target: T2, Amine oxidase [flavin-containing] A (Homo sapiens, UniProt P21397); assay type: functional
T2 sequence (P21397 whole entry): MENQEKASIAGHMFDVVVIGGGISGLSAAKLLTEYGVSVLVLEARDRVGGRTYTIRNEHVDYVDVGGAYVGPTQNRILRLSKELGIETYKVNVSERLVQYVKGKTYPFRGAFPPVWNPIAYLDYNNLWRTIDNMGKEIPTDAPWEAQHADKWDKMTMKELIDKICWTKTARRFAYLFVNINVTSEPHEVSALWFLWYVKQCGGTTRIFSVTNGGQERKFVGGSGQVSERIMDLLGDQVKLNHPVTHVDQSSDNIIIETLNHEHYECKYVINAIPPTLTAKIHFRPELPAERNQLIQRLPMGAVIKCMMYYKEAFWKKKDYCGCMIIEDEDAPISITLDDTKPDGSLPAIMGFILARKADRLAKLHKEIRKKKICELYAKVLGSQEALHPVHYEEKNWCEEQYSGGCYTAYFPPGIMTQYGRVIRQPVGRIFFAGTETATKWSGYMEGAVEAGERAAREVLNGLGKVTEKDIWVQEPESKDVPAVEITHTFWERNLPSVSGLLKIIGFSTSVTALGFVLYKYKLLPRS

[6] = molecular target: T3, 5-hydroxytryptamine receptor 2C (Homo sapiens, UniProt P28335)
T3 sequence (P28335 whole entry): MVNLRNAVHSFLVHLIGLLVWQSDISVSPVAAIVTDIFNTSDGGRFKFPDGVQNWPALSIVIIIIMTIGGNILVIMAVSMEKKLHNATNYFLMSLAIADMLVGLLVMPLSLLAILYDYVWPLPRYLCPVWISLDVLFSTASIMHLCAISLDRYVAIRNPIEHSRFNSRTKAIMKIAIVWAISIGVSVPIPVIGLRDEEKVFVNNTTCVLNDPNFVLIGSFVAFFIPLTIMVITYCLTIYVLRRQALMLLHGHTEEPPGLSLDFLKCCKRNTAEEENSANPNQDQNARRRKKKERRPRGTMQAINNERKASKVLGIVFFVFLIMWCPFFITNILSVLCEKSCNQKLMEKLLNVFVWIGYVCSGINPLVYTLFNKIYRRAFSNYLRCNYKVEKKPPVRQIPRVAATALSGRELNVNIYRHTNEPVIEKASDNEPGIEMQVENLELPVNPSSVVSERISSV

Vasopressin V2 receptor = Vasopressin V2 receptor (Homo sapiens, UniProt P30518)
Chain of Vasopressin V2 receptor (P30518 whole entry): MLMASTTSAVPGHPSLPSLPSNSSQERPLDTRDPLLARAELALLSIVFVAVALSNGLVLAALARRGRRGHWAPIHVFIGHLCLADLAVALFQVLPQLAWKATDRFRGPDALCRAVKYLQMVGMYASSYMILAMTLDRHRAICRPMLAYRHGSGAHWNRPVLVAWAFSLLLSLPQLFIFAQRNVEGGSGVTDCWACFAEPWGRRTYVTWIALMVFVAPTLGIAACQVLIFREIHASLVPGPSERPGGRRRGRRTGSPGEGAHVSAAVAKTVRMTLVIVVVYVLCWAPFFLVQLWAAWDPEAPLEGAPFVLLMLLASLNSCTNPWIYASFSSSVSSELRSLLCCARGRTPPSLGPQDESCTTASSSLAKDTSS

[7] = molecular target: T4, Equilibrative nucleoside transporter 1 (Homo sapiens, UniProt Q99808)
T4 sequence (Q99808 whole entry): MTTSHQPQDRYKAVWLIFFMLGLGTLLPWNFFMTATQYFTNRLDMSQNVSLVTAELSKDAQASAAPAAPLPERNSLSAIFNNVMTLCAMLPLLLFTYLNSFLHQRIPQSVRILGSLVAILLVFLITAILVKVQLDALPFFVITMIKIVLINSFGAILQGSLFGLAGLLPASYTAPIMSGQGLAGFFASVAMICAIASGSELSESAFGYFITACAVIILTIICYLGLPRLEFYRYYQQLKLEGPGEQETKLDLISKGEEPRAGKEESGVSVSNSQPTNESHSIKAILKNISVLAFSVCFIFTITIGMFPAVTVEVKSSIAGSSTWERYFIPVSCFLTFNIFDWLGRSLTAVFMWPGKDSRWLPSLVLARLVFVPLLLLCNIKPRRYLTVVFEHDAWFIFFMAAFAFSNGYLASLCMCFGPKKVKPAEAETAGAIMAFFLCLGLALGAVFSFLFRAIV

[8] = molecular target: Sodium-dependent dopamine transporter (Homo sapiens, UniProt Q01959)
Chain of Sodium-dependent dopamine transporter (Q01959 whole entry): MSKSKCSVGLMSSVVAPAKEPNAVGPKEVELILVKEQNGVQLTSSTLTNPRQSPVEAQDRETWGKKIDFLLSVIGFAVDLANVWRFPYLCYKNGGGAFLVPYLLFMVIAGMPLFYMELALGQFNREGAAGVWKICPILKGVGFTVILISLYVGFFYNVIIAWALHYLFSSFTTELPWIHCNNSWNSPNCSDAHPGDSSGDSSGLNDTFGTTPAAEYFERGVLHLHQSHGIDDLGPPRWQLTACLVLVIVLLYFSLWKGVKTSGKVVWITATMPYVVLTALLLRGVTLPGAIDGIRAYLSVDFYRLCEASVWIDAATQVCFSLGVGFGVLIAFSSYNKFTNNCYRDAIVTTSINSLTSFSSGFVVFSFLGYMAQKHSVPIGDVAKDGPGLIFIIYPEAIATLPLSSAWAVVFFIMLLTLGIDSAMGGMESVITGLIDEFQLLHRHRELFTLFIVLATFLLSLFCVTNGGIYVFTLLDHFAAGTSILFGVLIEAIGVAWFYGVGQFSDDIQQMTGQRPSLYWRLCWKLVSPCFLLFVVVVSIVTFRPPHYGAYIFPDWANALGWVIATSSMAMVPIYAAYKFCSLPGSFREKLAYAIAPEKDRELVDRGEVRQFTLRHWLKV

Adenosine receptor A1 = molecular target: T5, Adenosine receptor A1 (Homo sapiens, UniProt P30542)
T5 sequence (P30542 whole entry): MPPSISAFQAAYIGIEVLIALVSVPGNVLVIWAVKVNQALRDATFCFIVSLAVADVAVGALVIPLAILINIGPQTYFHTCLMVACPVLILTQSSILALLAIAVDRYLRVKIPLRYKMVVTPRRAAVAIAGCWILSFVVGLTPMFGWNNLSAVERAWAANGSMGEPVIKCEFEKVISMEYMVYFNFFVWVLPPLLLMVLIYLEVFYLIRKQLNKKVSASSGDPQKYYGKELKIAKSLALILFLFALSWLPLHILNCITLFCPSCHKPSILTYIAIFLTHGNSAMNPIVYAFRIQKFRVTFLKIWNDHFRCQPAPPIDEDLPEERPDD
Also: assay procedure not described here.

Chain of cGMP-inhibited 3',5'-cyclic phosphodiesterase 3A (Q14432 whole entry): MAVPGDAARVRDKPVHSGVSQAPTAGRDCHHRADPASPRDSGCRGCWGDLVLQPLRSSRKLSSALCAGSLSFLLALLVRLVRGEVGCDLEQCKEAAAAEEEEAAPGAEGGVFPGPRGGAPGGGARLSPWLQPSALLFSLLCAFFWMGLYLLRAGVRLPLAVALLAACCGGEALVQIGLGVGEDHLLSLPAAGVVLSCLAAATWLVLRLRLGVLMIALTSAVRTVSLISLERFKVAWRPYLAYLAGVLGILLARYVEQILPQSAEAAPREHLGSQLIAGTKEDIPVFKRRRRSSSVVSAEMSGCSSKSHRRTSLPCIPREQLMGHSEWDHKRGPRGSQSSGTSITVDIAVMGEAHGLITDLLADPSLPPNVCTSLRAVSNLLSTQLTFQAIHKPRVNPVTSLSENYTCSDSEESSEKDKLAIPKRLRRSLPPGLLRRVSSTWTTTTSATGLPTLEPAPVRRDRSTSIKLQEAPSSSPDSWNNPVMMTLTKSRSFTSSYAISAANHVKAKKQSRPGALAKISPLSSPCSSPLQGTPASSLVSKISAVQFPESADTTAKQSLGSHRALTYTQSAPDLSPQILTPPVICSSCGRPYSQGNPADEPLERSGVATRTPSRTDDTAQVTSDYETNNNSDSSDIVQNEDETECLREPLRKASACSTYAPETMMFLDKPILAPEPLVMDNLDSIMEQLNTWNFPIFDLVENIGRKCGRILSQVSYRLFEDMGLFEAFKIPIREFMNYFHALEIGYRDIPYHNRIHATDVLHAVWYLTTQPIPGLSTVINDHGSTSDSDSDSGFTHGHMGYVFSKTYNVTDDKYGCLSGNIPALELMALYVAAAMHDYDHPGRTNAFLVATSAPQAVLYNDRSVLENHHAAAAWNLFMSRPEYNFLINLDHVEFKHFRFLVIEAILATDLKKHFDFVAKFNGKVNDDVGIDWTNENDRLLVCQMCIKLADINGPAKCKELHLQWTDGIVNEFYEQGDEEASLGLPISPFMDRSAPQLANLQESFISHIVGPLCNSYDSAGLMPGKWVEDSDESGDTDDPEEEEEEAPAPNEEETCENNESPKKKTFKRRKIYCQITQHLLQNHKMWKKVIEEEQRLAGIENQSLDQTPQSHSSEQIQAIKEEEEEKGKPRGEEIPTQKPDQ
Chain of Delta-type opioid receptor (P41143 whole entry): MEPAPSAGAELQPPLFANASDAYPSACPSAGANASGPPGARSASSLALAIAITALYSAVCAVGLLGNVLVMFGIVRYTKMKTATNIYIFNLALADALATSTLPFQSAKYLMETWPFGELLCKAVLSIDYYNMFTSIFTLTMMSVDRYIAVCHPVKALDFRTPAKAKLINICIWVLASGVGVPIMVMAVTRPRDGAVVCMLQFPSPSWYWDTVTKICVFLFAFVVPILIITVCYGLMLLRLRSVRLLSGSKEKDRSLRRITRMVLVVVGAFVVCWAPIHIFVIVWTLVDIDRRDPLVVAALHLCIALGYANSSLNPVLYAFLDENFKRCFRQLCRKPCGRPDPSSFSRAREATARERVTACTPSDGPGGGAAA
Chain of Melanocortin receptor 3 (P41968 whole entry): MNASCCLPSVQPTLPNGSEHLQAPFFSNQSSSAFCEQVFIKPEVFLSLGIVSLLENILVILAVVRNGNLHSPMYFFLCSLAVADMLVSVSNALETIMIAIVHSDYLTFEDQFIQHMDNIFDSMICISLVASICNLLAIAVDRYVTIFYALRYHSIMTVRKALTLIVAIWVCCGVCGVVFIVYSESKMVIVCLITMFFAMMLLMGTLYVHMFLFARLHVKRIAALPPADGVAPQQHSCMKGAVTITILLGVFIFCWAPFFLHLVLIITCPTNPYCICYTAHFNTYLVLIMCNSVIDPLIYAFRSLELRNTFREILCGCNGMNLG

Compound	AC50 [1]	AC50 (Melanocortin receptor 3)	AC50 [2]	AC50 [3]	AC50 [4]	AC50 [5]	AC50 [6]	AC50 (Vasopressin V2 receptor)	AC50 [7]	AC50 [8]	AC50 (Adenosine receptor A1)
COCC1=C(C(=O)O)N2C(=O)[C@@H](NC(=O)/C(=N\OC)c3csc(N)n3)[C@H]2SC1 [CEFPODOXIME]	> 30 µM	> 30 µM	> 30 µM	> 30 µM	> 30 µM	> 30 µM	0.12 µM	> 30 µM	> 30 µM	> 30 µM	> 30 µM
CC(C)NCC(O)c1ccc(O)c(O)c1 (configuration not stated) [ISOPROTERENOL]	> 10 µM	> 30 µM	18 µM	> 30 µM	> 10 µM	> 10 µM	> 30 µM	> 30 µM	> 30 µM	> 30 µM	> 30 µM
CN1CCC(=C2c3ccccc3CCc3cccnc32)CC1 [AZATADINE]	> 30 µM	> 30 µM	> 30 µM	> 30 µM	> 10 µM	> 10 µM	3.1 µM	> 30 µM	> 30 µM	> 30 µM	> 30 µM
CC(C)[C@H](N)C(=O)OCC(CO)OCn1cnc2c(=O)nc(N)[nH]c21 (some centres not stated) [VALGANCICLOVIR]	> 30 µM	> 30 µM	7 µM	> 30 µM	> 30 µM	> 30 µM	> 30 µM	> 30 µM	> 30 µM	> 30 µM	> 30 µM
C=CCNc1nc(NCC=C)nc(N2CCN(C(c3ccc(F)cc3)c3ccc(F)cc3)CC2)n1 [ALMITRINE]	> 30 µM	> 30 µM	> 30 µM	> 30 µM	> 30 µM	> 30 µM	> 30 µM	> 30 µM	> 30 µM	> 30 µM	> 30 µM
CCC(=O)O[C@H]1CC[C@H]2[C@@H]3CCC4=CC(=O)CC[C@]4(C)[C@H]3CC[C@]12C [TESTOSTERONE PROPIONATE]	> 30 µM	> 10 µM	> 10 µM	> 10 µM	> 10 µM	> 10 µM	> 30 µM	> 10 µM	> 10 µM	> 10 µM	> 10 µM
CC(N)C(O)c1ccccc1 (configuration not stated) [PHENYLPROPANOLAMINE]	> 10 µM	> 30 µM	> 30 µM	> 30 µM	> 10 µM	> 10 µM	> 30 µM	> 30 µM	> 30 µM	> 30 µM	> 30 µM
